Source: patent US20250186603A1, “ANTI-GD2 ANTIBODIES, IMMUNOCONJUGATES AND THERAPEUTIC USES THEREOF” (Merck Patent GmbH, priority 2022, published 2025)

Assays:
[1] = test system: CHP-134 (neuroblastoma) cells; experiment: ADC cell killing assay (CellTiter Glo Luminescent Cell Viability assay) on CHP-134; format: cell-based, human
Procedure: (§1) The in vitro potency of the ADCs hu14.18-IgG1.4 (K322A)-delK-βGluc Exatecan and rituximab IgG1 βGluc Exatecan, the unconjugated antibody hu14.18-IgG1.4 (K322A)-delk and the free payload Exatecan was measured on antigen-positive human tumor cell lines CHP-134 (neuroblastoma, #ACC653, DSMZ, Braunschweig, Germany), NCI-H446 (small cell lung cancer (SCLC), #HTB-171, ATCC, Manassas, VA, USA) as well as M21 (melanoma, Scripps Research Institute, La Jolla, CA, USA) and antigen-negative human tumor cell line MDA-MB-468 (breast carcinoma, #ACC738, DSMZ, Braunschweig, Germany) using the CellTiter Glo® Luminescent Cell Viability assay (#G7573, Promega Corporation, Madison, WI, USA).
(§2) The cell lines CHP-134, NCI-H446 and MDA-MB-468 were cultured as instructed by vendor and maintained in RPMI1640 medium with GlutaMAX™ supplement (#61870-010, Gibco™, purchased from Thermo Fisher Scientific, Waltham, MA, USA), 1 mM sodium pyruvate (#11360-070, Gibco™, Thermo Fisher Scientific) and 10% fetal bovine serum (FBS) (#S0615, Sigma Aldrich, St. Louis, MO, USA). The melanoma cell line M21 was cultured in DMEM with stable L-glutamine (#41965-039, Gibco™, Thermo Fisher Scientific) and 10% FBS. […]

[2] = test system: NCI-H446 (small cell lung cancer) cells; experiment: ADC cell killing assay (CellTiter Glo Luminescent Cell Viability assay) on NCI-H446; format: cell-based, human
Procedure: as §1, §2

M21 (melanoma) cells = experiment: ADC cell killing assay (CellTiter Glo Luminescent Cell Viability assay) on M21; format: cell-based, human
Procedure: as §1, §2

[3] = test system: MDA-MB-468 (breast carcinoma) cells; experiment: ADC cell killing assay (CellTiter Glo Luminescent Cell Viability assay) on MDA-MB-468; format: cell-based, human
Procedure: as §1, §2

CTG-2264 tumors = experiment: Combination efficacy study of anti-GD2 ADC and ATR inhibitor in osteosarcoma PDX model CTG-2264; format: in vivo, athymic nude mice (nu/nu); settings: Day 23; Molecule 1 3.0 mg/kg single IV Day0; ATR inhibitor 10 mg/kg p.o. qd; combination of both
Procedure: The antitumor activities of selected ADCs of the present invention were tested in the CTG-2264, osteosarcoma PDX model.
Vehicle control was saline and dosed (10 mL/kg) at Day0. The group size for each treatment group was 3. The calculation of the Tumor Growth Inhibition (TGI) was done for Day 23 after treatment start, when the mean tumor volume of the control group reached 1000 mm3 (see FIG. 11, 12).

[4] = cited from earlier work

CC[C@@]1(O)C(=O)OCc2c1cc1n(c2=O)Cc2c-1nc1cc(F)c(C)c3c1c2[C@@H](N)CC3 [Exatecan, (1S,9S)-1-Amino-9-ethyl-5-fluoro-9-hydroxy-4-methyl-1,2,3,9,12,15-hexahydro-10H,13H-benzo[de]pyrano[3′,4′:6,7]indolizino[1,2-b]quinoline-10,13-dione]
Span (%) ([1]; CHP-134, % efficacy at highest test concentration (100 nM for Molecule 1,2,4; 1 μM for Molecule 3), geomean): 100%
IC50 ([1]; Homo sapiens, CHP-134, 144 h): 200 pM
IC50 ([2]; Homo sapiens, NCI-H446, 144 h): 70 pM
Span (%) ([2]; NCI-H446, % efficacy at highest test concentration (100 nM for Molecule 1,2,4; 1 μM for Molecule 3), geomean): 96%
IC50 (M21 (melanoma) cells; Homo sapiens, M21, 144 h): 1100 pM
Span (%) (M21 (melanoma) cells; M21, % efficacy at highest test concentration (100 nM for Molecule 1,2,4; 1 μM for Molecule 3), geomean): 95%
IC50 ([3]; Homo sapiens, MDA-MB-468, 144 h): 300 pM
Span (%) ([3]; MDA-MB-468, % efficacy at highest test concentration (100 nM for Molecule 1,2,4; 1 μM for Molecule 3), geomean): 100%

Nc1nn2cc(F)cnc2c1C(=O)Nc1cncc(F)c1N1CCC(C(=O)N2CCN(C3COC3)CC2)CC1 [ATR inhibitor]
tumor growth inhibition (TGI) (CTG-2264 tumors): 67%

B1: Dinutaximab beta (antibody, chains of the INN, looked up, V domains shown)
VH: EVQLLQSGPELEKPGASVMISCKASGSSFTGYNMNWVRQNIGKSLEWIGAIDPYYGGTSYNQKFKGRATLTVDKSSSTAYMHLKSLTSEDSAVYYCVSGMEYWGQGTSVTVSS
VL: EIVMTQSPATLSVSPGERATLSCRSSQSLVHRNGNTYLHWYLQKPGQSPKLLIHKVSNRFSGVPDRFSGSGSGTDFTLKISRVEAEDLGVYFCSQSTHVPPLTFGAGTKLELK
clinical signs ([4]; cynomolgus monkeys, EMA/263814/2017): clinical signs that were interpreted as acute pain
histopathology of peripheral nervous system ([4]; infused 4 h/day for 10 consecutive days, 30 and 100 mg/m^2/day): histopathological changes were noted on day 15 in the peripheral nerves and visceral nervous innervation of organs
